Patent US7858612B2, “Therapeutic agent for inflammatory bowel diseases” (Meiji Seika Kaisha, Ltd., priority 2007, dated 2010)
Read-outs that look alike come from different tables or passages of the source. Marks after values point to notes of the source that are not given here.

What was measured:
[1] = tested on: DSS induced IBD model; test: 3% dextran sulfate sodium (DSS) induced acute rat IBD model (prophylactic effect); assay type: in vivo, Wistar rats; conditions: for inhibition at 100 mg/kg/day / inhibition at 1 mg/kg/day / inhibition at 10 mg/kg/day: Rattus norvegicus, po, read-out: Inhibition rate (%); for Feces score: Table 3 (effectiveness on feces score); for Feces score / ulcer area: mean ± SE; for ulcer area: Table 2 (title: ulcer area reduction effect), twice a day
From the text: IBD was induced by freely allowing male 7 week-old Wistar rats (purchased from Japan SLC, Inc.) to ingest 3% DSS solution (n=8). In the period of 7 days after initiating DSS administration, soft feces and blood feces scores were observed according to the following basis, and the sum of the soft feces score and blood feces score was obtained as the feces score of the individual animal.
• Soft feces score (0 to 3) • [0: nothing abnormal detected (NAD), • 1: slightly soft, • 2: soft, • 3: diarrhea] • Blood feces score (0 to 3) • [0: nothing abnormal detected (NAD), • 1: blood in feces, • 2: bright-red blood adhered on feces, • 3: melena]
(§1) 1% Evans blue physiological saline was intravenously injected in an amount of 1 ml per rat 8 days after DSS exposure, and the animal was euthanized 30 minutes after that for excising the large intestine. After immobilizing the large intestine in the length of 7 to 8 cm from anus with 4% formalin buffer for 20 minutes, the intestine was longitudinally opened from the mesenterium side for photographing the rectal portion. Ulcer area was calculated by image analysis.
Compound A (10 mg/kg/day), or. sulfasalazine (100 mg/kg/day) or prednisolone (1 mg/kg/day) as a control compound was made into suspension in an agate mortar, which was orally administered twice a day at a dose of 5 ml/kg to each rat starting from a day before administration of DSS to a day before dissection. In this connection, 1% hydroxypropylmethyl cellulose solution (HPMC) was used as a solvent, which was administered at a dose of 5 ml/kg to the solvent treated group.

[2] = tested on: carrageenin induced paw edema in rats; test: Carrageenin induced paw edema in rats; assay type: in vivo, Wistar rats; conditions: for Volume of edema: 3 h after carrageenin, mean ± SE
Procedure: To right hind paws of male 7 week-old Wistar rats (purchased from Japan SLC, Inc.) 0.1 ml of 1% λ-carrageenin was subcutaneously injected to cause paw edema reaction (n=5). Compound A at doses of 1 to 25 mg/kg and indomethacin at a dose of 5 mg/kg were orally administered 15 and 60 minutes before administration of carrageenin, respectively.
Three hours after administration of carrageenin, when the paw edema reaction reached maximum, the effectiveness was evaluated from the volumes of the right hind paw edema.

[3] = tested on: DSS induced rat IBD chronic model; test: DSS induced rat IBD chronic model (therapeutic effect); assay type: in vivo, Wistar rats; conditions: for Side effects such as inhibition of weight gain: rat, in vivo
Procedure: Colitis was induced by freely allowing male 7 week-old Wistar rats (purchased from Japan SLC, Inc.) to ingest 3% DSS solution for 3 days, and subsequently chronic IBD was induced by freely allowing to ingest 1% DSS solution starting from the 4th day of the test.
Compound A (2, 20 mg/kg/day), 5-aminosalicylic acid as a control (5-ASA: 200 mg/kg/day) and cyclosporine A (Cy A: 25 mg/kg/day) were administered to the animals starting from the 4th day of the test until the day of dissection (n=8 to 20).
The property of feces in individual animal was observed until the day before dissection, and the soft feces score and the blood feces score were determined according to the same basis as shown in Test Example 3 to obtain the sum of the soft feces score and blood feces score as the feces score.
as §1, with “Also, 1%” for “1%”, “on the day of dissection,” for “8 days after DSS exposure,”, “portion and measuring the rectum weight. The state and extent of eroded rectal portion were scored according to the following basis for making a macro observation score.” for “portion. Ulcer area was calculated by image analysis.”
Macro observation score (0-5)
[0: normal, • 1: erosion formation in narrow ranges, • 2: weak erosion formation, without bleeding, • 3: moderate erosion formation and weak bleeding in narrow ranges, • 4: strong erosion formation and bleeding in narrow ranges, • 5: strong erosion formation and bleeding in wide ranges]
A therapeutic effect of Compound B orally administered was examined in the same manner as in Test Example 4 except that Compound B (20 mg/kg/day) was used in place of Compound A (n=12).

[4] = tested on: IBD; conditions: ulcerative colitis and Crohn's disease, literature; cited from earlier work
[5] = tested on: splenocytes; test: Direct effect on the activation of T cells: cytokine production by ovalbumin-stimulated splenocytes (ELISA); assay type: cell-based, Balb/c mice; conditions: for Production of IFNγ / Production of IL-2 / Production of IL-5: culture for 24 hours
Procedure: 7 week-old male Balb/c mice (purchased from Japan SLC, Inc.) were sensitized with an aluminum hydroxide gel-ovalbumin suspension administered intraperitoneally or subcutaneously in both inguinal regions on the first and 14th days, and the spleen was excised on the 21st day for preparing a splenocyte suspension. After removal of erythrocytes, Compound B (10 μM) and ovalbumin were added to splenocytes suspended in a culture medium, and the mixture was cultured at 37° C. under a condition of 5% CO2.
IL-4 in the supernatant after culture for 6 hours, and IL-2, IL-5 and IFNγ in the supernatant after culture for 24 hours were quantitatively determined by ELISA (ELISA kit manufactured by ENDOGEN).

[6] = tested on: TNBS induced IBD model; test: Trinitrobenzene sulfonic acid (TNBS) induced rat IBD model (therapeutic effect); assay type: in vivo, SD rats
Procedure: 8 week-old male SD rats (purchased from Charles River
Laboratories Japan, Inc.) were intrarectally treated with TNBS to induce enteritis, and divided into groups 2 days after the treatment with TNBS to initiate the administration of the drugs. A solvent, Compound A (2, 20, 50 mg/kg/day), or prednisolone (6 mg/kg/day) was orally administered twice a day, and the rats were subjected to autopsy 8 days after administration for determining the macro observation score. The evaluation of the score was conducted by the method described in Table 4 according to the judgment method by JOHN L. WALLACE et al. (Gastroenterology 1989; 96: 29-36).
Furthermore, the large intestine was cut to a length of 10 cm for measuring the wet weight of intestine.

[7] = Test for converting Compound A into Compound B (oral 14C Compound A, Radio-HPLC); assay type: in vivo, Wistar rats; conditions: for Detection in plasma: 15 minutes after oral 14C labeled Compound A 1 mg/kg, fasting rats; for Detection in bile: bile collected for 8 hours after oral 14C labeled Compound A 1 mg/kg; for Detection in urine: urine collected for 24 hours after oral 14C labeled Compound A 1 mg/kg
Procedure: Male 8 week-old Wistar rats (purchased from Japan SLC, Inc.) under fasting conditions were orally administered with ^14C labeled Compound A at a dose of 1 mg/kg, and the amounts of Compound B in plasma, urine and bile were determined by Radio-HPLC.

[8] = tested on: TNBS induced IBD model; test: Trinitrobenzene sulfonic acid (TNBS) induced rat IBD model (therapeutic effect); assay type: in vivo, SD rats; conditions: 5 mg/kg × 2 oral, from 2 days after TNBS
[9] = in vivo; parameters: species or system SD rats; conditions: both sexes, SD, rat, po
Procedure: To 6 week-old male and female SD rats (purchased from
Charles River Laboratories Japan, Inc.) a solvent (hydroxymethyl cellulose) or Compound A (100, 300, 1000 mg/kg/day) was administered orally and repeatedly for 26 consecutive weeks (n=15).

[10] = cited from earlier work
[11] = 20 mg/kg/day from 4th day, vs solvent treated group

Work on `O=C(O)c1cc(/N=N/c2ccc(S(=O)(=O)Nc3ccccn3)cc2)ccc1O` [Sulfasalazine, sulfasalazine] yielded an inhibition at 100 mg/kg/day ([1]; Table 2 (ulcer area reduction effect), 100 mg/kg/day oral) of 8.2%, an inhibition at 100 mg/kg/day ([1]; Table 3 (feces score), 100 mg/kg/day oral) of 22.2% and a Feces score ([1]; 100 mg/kg/day oral) of 2.63 ± 0.50.

For `COc1ccc2c(c1)c(CC(=O)O)c(C)n2C(=O)c1ccc(Cl)cc1` [Indomethacin, indomethacin, reference compound], the “Inhibitory effect on paw edema” value ([2]; 5 mg/kg oral) was “significant (p<0.01) inhibitory effect” and the Volume of edema ([2]; 5 mg/kg oral 60 min before carrageenin) was 0.48 ± 0.04 mL.

In the case of `Nc1ccc(O)c(C(=O)O)c1` [Compound 5-ASA, 5-aminosalicylic acid, reference compound], the “Inhibitory effects in any evaluation items” value ([3]; 200 mg/kg/day from 4th day) is reported as “significant inhibitory effects were not recognized”.

For `O=C([O-])c1cc(=O)c2c(OCC(O)COc3cccc4oc(C(=O)[O-])cc(=O)c34)cccc2o1.[Na+].[Na+]` [disodium cromoglycate], the “Effectiveness against IBD” value [4] is listed as “ineffective against IBD”.

With `C[C@]12C=CC(=O)C=C1CC[C@@H]1[C@@H]2[C@@H](O)C[C@@]2(C)[C@H]1CC[C@]2(O)C(=O)CO` [Prednisolone, prednisolone, reference compound] the “Production of IFNγ” value ([5]; concentration not given) was “almost completely inhibited”, the “Production of IL-2” value ([5]; concentration not given) was “almost completely inhibited” and the “Production of IL-5” value ([5]; concentration not given) was “almost completely inhibited”. For the same molecule, the “Weight gain (side effect)” value ([1]; 1 mg/kg/day oral) was “significant weight gain inhibitory effect”, the inhibition at 1 mg/kg/day ([1]; Table 2 (ulcer area reduction effect), 1 mg/kg/day oral) was 26.1% and the inhibition at 1 mg/kg/day ([1]; Table 3 (feces score), 1 mg/kg/day oral) was 40.7%. For the same molecule, the ulcer area ([1]; 1 mg/kg/day oral) was 337.5 ± 34.1, the Feces score ([1]; 1 mg/kg/day oral) was 2.00 ± 0.42 and the Colonic ulceration score ([6]; 3 mg/kg × 2 oral, from 2 days after TNBS) was 3.0 ± 0.5^b. For the same molecule, the Weight gain ([6]; 6 mg/kg/day oral) was “remarkable inhibition of (P<0.01) weight gain” and the Colonic ulceration score ([6]; Table 6 (title: colonic wet weight of large intestine, 10 cm), 3 mg/kg × 2 oral) was 1.05 ± 0.09^bb.

For `COc1cc2[nH]c(=O)c3nn[nH]c3c(=O)c2cc1OC` [Compound B, 7,8-dimethoxy-4(5H),10-dioxo-1H-1,2,3-triazolo[4,5-c][1]benzoazepine], the “Production of IL-4” value ([5]; 10 μM, culture for 6 hours) was “did not inhibit”, the “Production of IFNγ” value ([5]; 10 μM) was “did not inhibit” and the “Production of IL-2” value ([5]; 10 μM) was “did not inhibit”. For the same molecule, the “Production of IL-5” value ([5]; 10 μM) was “did not inhibit”, the “Effect on macro observation score” value ([3]; 20 mg/kg/day oral) was “an inhibitory effect was recognized” and the “Feces score on the day before dissection” value ([3]; 20 mg/kg/day oral, n=12, solvent treated group 1.9±0.25, P<0.05) was 0.9±0.24. The “Side effects such as inhibition of weight gain” value [3] was “not observed”, the Detection in plasma [7] was “detected as the main metabolite” and the Detection in bile [7] was “detected as the main metabolite”. The Detection in urine [7] was “detected as the main metabolite”.

With `COc1cc2[nH]c(=O)c3nn(C(OC(=O)OC(C)C)C(C)C)nc3c(=O)c2cc1OC` (centres unmarked) [Compound A, 2-(1-Isopropoxycarbonyloxy-2-methylpropyl)-7,8-dimethoxy-4(5H),10-dioxo-2H-1,2,3-triazolo[4,5-c][1]benzoazepine] the Volume of edema ([2]; 1 mg/kg oral 15 min before carrageenin) was 0.87 ± 0.04 mL, the Volume of edema ([2]; 5 mg/kg oral 15 min before carrageenin) was 0.89 ± 0.04 mL and the Volume of edema ([2]; 25 mg/kg oral 15 min before carrageenin) was 0.67 ± 0.05 mL. For the same molecule, the “Inhibitory effect on paw edema” value ([2]; any doses (1 to 25 mg/kg oral)) was “no inhibitory effect”, the Side effects ([1]; 10 mg/kg/day oral) was “without any side effects” and the inhibition at 10 mg/kg/day ([1]; Table 2 (ulcer area reduction effect), 10 mg/kg/day oral) was 36.4%. For the same molecule, the inhibition at 10 mg/kg/day ([1]; Table 3 (feces score), 10 mg/kg/day oral) was 40.7%, the ulcer area ([1]; 10 mg/kg/day oral) was 291.3 ± 37.0 and the Feces score ([1]; 10 mg/kg/day oral) was 2.00 ± 0.53. The Colonic ulceration score ([6]; 1 mg/kg × 2 oral, from 2 days after TNBS) was 3.5 ± 0.4, the Colonic ulceration score ([6]; 25 mg/kg × 2 oral, from 2 days after TNBS) was 3.3 ± 0.3 and the Weight gain ([6]; Compound A treated group (2 to 50 mg/kg/day oral)) was “significant inhibition of weight gain was not observed”. For the same molecule, the Colonic ulceration score ([6]; Table 6 (title: colonic wet weight of large intestine, 10 cm), 25 mg/kg × 2 oral) was 1.20 ± 0.04, the “Effect on the feces score on the day before dissection (FIG. 3)” value ([3]; 2 mg/kg/day from 4th day) was “significant (P<0.005) ameliorating effect” and the “Effect on the increase of rectum weight (FIG. 2)” value ([3]; 2 mg/kg/day from 4th day, vs solvent treated group) was “significant (P<0.005, P<0.05) ameliorating effect”. For the same molecule, the “Effect on macro observation score (FIG. 4)” value ([3]; 2 mg/kg, P=0.0509 category test, P=0.1161 segmentation test) was “inhibitory tendency”, the “Effect on the feces score on the day before dissection (FIG. 3)” value ([3]; 20 mg/kg/day from 4th day) was “significant (P<0.005) ameliorating effect” and the “Effect on the increase of rectum weight (FIG. 2)” value [3, 11] was “significant (P<0.005, P<0.05) ameliorating effect”. The “Effect on the shortening of large intestine (FIG. 1)” value [3, 11] was “significant (P<0.01) ameliorating effect”, the “Effect on macro observation score (FIG. 4)” value ([3]; 20 mg/kg/day, P=0.0006 category test, P=0.0003 segmentation test) was “significant ameliorating effect” and the “Side effects such as inhibition of weight gain” value [3] was “not observed”. The Colonic ulceration score [8] was 3.5 ± 0.5, the Detection in plasma [7] was “not detected” and the Detection in bile [7] was “not detected”. The “Metabolism of Compound A into Compound B on absorption” value ([7]; oral 1 mg/kg, rats) was “nearly all of Compound A was metabolized into Compound B”, the Detection in urine [7] was “not detected” and the NOAEL at 26 weeks [9] was at least 1000 mg/kg/day. The “Absorbability upon oral administration relative to Compound B” value [10] was “seven times as large as that of Compound B”.
